Assays:
Balb/c splenic B cells = test: B cell activation and proliferation assay (Alamar Blue); type: cell-based; conditions: Mus musculus
Experimental: The ability of one or more subject compounds to inhibit B cell activation and proliferation is determined according to standard procedures known in the art. For example, an in vitro cellular proliferation assay is established that measures the metabolic activity of live cells. The assay is performed in a 96 well microtiter plate using Alamar Blue reduction. Balb/c splenic B cells are purified over a Ficoll-Paque™ PLUS gradient followed by magnetic cell separation using a MACS B cell Isolation Kit (Miletenyi). Cells are plated in 90 μl at 50,000 cells/well in B Cell Media (RPMI+10% FBS+Penn/Strep+50 μM bME+5 mM HEPES). A compound provided herein is diluted in B Cell Media and added in a 10 μl volume. Plates are incubated for 30 min at 37° C. and 5% CO2 (0.2% DMSO final concentration). A 50 μl B cell stimulation cocktail is then added containing either 10 μg/ml LPS or 5 μg/ml F(ab′)2 Donkey anti-mouse […] plus 2 ng/ml recombinant mouse IL4 in B Cell Media. Plates are incubated for 72 hours at 37° C. and 5% CO2. A volume of 15 μL of Alamar Blue reagent is added to each well and plates are incubated for 5 hours at 37° C. and 5% CO2. Alamar Blue fluoresce is read at 560Ex/590Em, and IC50 or EC50 values are calculated using GraphPad Prism 5.

PI3Kγ = molecular target: T1, PI3Kγ (Homo sapiens, UniProt P48736); test: PI3 Kinase HTRF assay, PI3Kγ; type: biochemical; conditions: 10 μM PIP2, 10 μM ATP; 'Greater than 10 μM' and 'Greater than 1 μM to 10 μM'; read-out: PI3K γ IC50
T1 construct: purchased Millipore Corporation 14-558-K
T1 sequence (P48736 whole entry): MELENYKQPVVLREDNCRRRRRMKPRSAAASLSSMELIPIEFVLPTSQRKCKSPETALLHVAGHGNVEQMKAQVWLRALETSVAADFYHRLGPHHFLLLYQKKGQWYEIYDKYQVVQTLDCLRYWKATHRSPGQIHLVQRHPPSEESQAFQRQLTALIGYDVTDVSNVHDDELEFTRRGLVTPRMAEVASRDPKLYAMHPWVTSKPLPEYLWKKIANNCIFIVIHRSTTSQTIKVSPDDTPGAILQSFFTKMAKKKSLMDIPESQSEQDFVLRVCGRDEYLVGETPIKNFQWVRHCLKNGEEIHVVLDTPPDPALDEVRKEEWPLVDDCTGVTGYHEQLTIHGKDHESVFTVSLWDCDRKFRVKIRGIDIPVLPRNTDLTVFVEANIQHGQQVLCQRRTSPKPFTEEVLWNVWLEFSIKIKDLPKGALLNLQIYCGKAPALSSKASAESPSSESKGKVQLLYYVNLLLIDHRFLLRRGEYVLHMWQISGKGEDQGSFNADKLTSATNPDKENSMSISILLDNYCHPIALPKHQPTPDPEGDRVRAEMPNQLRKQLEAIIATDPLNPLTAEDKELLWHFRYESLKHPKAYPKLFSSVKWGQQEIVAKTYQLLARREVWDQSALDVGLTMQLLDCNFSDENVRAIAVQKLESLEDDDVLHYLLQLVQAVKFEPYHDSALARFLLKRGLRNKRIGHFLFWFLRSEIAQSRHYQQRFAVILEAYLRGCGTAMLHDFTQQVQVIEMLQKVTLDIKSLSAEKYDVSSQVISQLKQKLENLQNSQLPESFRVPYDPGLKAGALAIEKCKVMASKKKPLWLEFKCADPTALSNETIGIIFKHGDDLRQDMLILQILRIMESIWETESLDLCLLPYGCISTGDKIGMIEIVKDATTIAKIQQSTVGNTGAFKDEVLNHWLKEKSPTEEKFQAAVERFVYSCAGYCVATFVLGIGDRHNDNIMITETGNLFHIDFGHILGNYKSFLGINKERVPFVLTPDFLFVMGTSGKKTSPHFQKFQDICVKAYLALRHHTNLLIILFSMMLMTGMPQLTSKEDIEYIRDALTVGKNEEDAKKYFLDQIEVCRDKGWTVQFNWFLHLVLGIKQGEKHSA
From the text: (§1) A PI3-Kinase HTRF® assay kit (cat No. 33-016) purchased from Millipore Corporation was used to screen compounds provided herein. This assay used specific, high affinity binding of the GRP1 pleckstrin homology (PH) domain to PIP3, the product of a Class 1A or 1B PI3 Kinase acting on its physiological substrate PIP2. During the detection phase of the assay, a complex was generated between the GST-tagged PH domain and biotinylated short chain PIP3. The biotinylated PIP3 and the GST-tagged PH domain recruited fluorophores (Streptavidin-Allophycocyanin and Europium-labeled anti-GST respectively) to form the fluorescence resonance energy transfer (FRET) architecture, generating a stable time-resolved FRET signal. The FRET complex was disrupted in a competitive manner by non-biotinylated PIP3, a product formed in the PI3 Kinase assay.
(§2) PI3 Kinase α, β, γ and δ activity was assayed using the PI3 Kinase HTRF® assay kit (catalogue No. 33-016) purchased from Millipore Corporation. Purified recombinant PI3Kα (catalogue No. 14-602-K), PI3Kβ (catalogue No. 14-603-K), PI3Kγ (catalogue No. 14-558-K) and PI3Kδ (catalogue No. 14-604-K) were obtained from Millipore Corporation. Purified recombinant PI3K enzyme was used to catalyze the phosphorylation of phosphatidylinositol 4,5-bisphosphate (PIP2 at 10 μM) to phosphatidylinositol 3,4,5-trisphosphate (PIP3) in the presence of 10 μM ATP. The assay was carried out in 384-well format and detected using a Perkin Elmer EnVision Xcite Multilabel Reader. Emission ratios were converted into percent inhibitions and imported into GraphPad Prism software. The concentration necessary to achieve inhibition of enzyme activity by 50% (IC50) was calculated using concentrations ranging from 20 μM to 0.1 nM (12-point curve). IC50 values were determined using a nonlinear regression model available in GraphPad Prism 5. […]

PI3Kα = molecular target: T2, PI3Kα (Homo sapiens, UniProt P42336); test: PI3 Kinase HTRF assay, PI3Kα; type: biochemical; conditions: 10 μM PIP2, 10 μM ATP; 'Greater than 10 μM' and 'Greater than 1 μM to 10 μM'; read-out: PI3K α IC50
T2 construct: purchased Millipore Corporation 14-602-K
T2 sequence (P42336 whole entry): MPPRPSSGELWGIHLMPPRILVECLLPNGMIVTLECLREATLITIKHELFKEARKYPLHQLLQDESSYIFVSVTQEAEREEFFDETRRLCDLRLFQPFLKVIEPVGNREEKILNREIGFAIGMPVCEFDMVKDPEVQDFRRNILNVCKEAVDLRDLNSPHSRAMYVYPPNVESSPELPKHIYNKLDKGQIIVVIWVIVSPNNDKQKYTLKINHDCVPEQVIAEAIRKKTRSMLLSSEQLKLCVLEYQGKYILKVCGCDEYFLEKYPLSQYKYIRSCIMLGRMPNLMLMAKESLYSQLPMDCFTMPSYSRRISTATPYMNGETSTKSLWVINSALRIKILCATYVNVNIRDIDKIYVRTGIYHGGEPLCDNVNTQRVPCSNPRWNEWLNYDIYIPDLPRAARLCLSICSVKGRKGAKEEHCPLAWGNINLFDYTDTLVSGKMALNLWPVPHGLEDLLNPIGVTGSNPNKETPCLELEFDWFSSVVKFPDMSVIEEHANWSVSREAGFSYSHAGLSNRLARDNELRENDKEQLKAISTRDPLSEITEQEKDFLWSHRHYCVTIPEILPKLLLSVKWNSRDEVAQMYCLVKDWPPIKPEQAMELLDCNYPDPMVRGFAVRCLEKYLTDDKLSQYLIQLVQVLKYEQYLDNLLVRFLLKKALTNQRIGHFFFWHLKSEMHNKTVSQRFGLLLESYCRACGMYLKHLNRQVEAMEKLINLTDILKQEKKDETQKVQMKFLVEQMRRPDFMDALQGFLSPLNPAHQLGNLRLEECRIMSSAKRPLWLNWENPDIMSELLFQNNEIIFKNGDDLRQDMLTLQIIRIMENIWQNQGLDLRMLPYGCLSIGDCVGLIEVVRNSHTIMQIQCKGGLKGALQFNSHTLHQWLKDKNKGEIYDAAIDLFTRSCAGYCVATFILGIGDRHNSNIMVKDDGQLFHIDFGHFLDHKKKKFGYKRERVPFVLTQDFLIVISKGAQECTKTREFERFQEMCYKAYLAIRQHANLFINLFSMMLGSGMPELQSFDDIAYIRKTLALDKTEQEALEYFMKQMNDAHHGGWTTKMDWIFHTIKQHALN
T2 sequence (P27986 whole entry partner): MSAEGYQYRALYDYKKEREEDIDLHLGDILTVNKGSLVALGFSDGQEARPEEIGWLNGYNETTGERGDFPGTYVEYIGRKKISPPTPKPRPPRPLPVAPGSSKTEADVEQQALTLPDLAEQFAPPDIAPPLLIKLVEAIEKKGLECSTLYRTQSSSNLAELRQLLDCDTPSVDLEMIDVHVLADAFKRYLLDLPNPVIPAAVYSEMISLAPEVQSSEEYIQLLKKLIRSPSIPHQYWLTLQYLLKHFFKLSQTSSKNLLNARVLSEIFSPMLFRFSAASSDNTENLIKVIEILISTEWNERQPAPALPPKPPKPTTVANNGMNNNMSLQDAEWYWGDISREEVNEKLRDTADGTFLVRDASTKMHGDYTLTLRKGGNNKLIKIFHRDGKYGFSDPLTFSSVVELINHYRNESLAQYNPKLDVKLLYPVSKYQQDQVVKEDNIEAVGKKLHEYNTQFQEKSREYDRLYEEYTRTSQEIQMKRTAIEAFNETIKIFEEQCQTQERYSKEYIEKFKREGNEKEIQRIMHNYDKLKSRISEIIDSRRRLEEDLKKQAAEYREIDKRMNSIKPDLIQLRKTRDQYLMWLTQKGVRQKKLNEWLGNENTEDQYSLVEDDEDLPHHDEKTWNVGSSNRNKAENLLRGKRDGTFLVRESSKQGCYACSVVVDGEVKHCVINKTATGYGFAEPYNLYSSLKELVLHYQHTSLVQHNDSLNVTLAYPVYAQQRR
From the text: as §1, §2

PI3Kβ = test: PI3 Kinase HTRF assay, PI3Kβ; type: biochemical, human; conditions: 10 μM PIP2, 10 μM ATP; 'Greater than 10 μM' and 'Greater than 1 μM to 10 μM'; read-out: PI3K β IC50
Chain of PI3Kβ (Q8BTI9 whole entry): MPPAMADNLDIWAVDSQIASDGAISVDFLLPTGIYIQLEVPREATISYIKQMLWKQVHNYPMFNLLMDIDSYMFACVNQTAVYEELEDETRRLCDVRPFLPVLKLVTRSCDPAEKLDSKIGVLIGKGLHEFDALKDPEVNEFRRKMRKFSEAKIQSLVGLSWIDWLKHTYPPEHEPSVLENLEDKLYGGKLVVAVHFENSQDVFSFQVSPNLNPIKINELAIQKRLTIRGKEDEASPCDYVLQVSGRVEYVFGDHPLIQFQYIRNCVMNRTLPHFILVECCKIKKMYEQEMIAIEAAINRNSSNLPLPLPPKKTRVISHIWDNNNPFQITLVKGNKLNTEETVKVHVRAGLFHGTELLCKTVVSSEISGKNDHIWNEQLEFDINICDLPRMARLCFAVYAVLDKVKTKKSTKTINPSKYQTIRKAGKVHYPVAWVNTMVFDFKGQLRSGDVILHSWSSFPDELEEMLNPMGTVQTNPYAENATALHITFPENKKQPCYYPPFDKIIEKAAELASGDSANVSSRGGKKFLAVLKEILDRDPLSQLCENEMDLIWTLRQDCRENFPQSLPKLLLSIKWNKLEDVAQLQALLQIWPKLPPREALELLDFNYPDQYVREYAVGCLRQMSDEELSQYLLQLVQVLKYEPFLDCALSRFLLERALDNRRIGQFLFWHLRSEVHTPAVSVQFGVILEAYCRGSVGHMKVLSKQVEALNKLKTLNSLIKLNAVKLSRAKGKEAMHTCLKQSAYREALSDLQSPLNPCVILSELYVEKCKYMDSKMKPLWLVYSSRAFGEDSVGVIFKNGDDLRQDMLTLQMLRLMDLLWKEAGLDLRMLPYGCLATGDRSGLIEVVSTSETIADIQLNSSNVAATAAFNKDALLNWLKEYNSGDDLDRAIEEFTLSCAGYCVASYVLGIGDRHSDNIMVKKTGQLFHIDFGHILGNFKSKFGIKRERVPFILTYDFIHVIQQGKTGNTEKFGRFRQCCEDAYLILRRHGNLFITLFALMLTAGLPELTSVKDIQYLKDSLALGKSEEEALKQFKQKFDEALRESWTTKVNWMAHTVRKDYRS
From the text: as §1
as §2, with “Purified recombinant PI3Kα (catalogue No. 14-602-K), PI3Kβ (catalogue No. 14-603-K), PI3Kγ (catalogue No. 14-558-K) and PI3Kδ (catalogue No. 14-604-K) were obtained from Millipore Corporation.” left out, “The concentration necessary to achieve inhibition of enzyme activity by 50% (IC50) was calculated using concentrations ranging from 20 μM to 0.1 nM (12-point curve).” left out

| IC50 (PI3Kγ) | IC50 (PI3Kα) | IC50 (PI3Kβ) | SMILES | EC50 (Balb/c splenic B cells; 1 μM to 100 nM) | EC50 (Balb/c splenic B cells; 'Less than 100 nM') |
| --- | --- | --- | --- | --- | --- |
| – | 1000 to 10000 nM | > 10000 nM | C[C@H](Nc1ncnc2cccnc12)c1cc2cccc(-c3cnn(C)c3)c2c(=O)n1-c1cccc(F)c1 [Compound I-25] | – | < 100 nM |
| – | 1000 to 10000 nM | > 10000 nM | C[C@H](Nc1nc(N)nc2cccnc12)c1cc2cccc(-c3cnn(C)c3)c2c(=O)n1-c1cccc(F)c1 [Compound I-38] | – | < 100 nM |
| – | 1000 to 10000 nM | 1000 to 10000 nM | C[C@H](Nc1ccnc2cccnc12)c1cc2cccc(Cl)c2c(=O)n1-c1cccc(F)c1 [Compound I-50] | – | < 100 nM |
| – | 1000 to 10000 nM | 1000 to 10000 nM | C[C@H](Nc1ccnc2cccnc12)c1cc2cccc(-c3cnn(C)c3)c2c(=O)n1-c1ccccc1 [Compound I-51] | – | < 100 nM |
| 1000 to 10000 nM | – | > 10000 nM | C[C@H](Nc1c(C#N)cnc2cccnc12)c1cc2cccc(Cl)c2c(=O)n1-c1cccc(F)c1 [Compound I-54] | – | – |
| 1000 to 10000 nM | – | > 10000 nM | C[C@H](Nc1c(C#N)cnc2cccnc12)c1cc2cccc(-c3cnn(C)c3)c2c(=O)n1-c1ccccc1 [Compound I-55] | – | – |
| – | 1000 to 10000 nM | 1000 to 10000 nM | Cc1cccc2cc([C@H](C)Nc3ncnc4cccnc34)n(-c3cccc(F)c3)c(=O)c12 [Compound I-70] | – | < 100 nM |
| – | 1000 to 10000 nM | > 10000 nM | COc1ncc(-c2cccc3cc([C@H](C)Nc4ncnc5cccnc45)n(-c4cccc(F)c4)c(=O)c23)cn1 [Compound I-73] | – | < 100 nM |
| – | 1000 to 10000 nM | 1000 to 10000 nM | C[C@H](Nc1nc(N)nc2cccnc12)c1cc2cccc(-c3ccnnc3)c2c(=O)n1-c1ccccc1 [Compound I-79] | – | < 100 nM |
| – | 1000 to 10000 nM | > 10000 nM | C[C@H](Nc1nc(N)nc2cccnc12)c1cc2cccc(-c3ccnnc3)c2c(=O)n1-c1cccc(F)c1 [Compound I-80] | – | < 100 nM |
| – | 1000 to 10000 nM | > 10000 nM | Cc1ncc(-c2cccc3cc([C@H](C)Nc4nc(N)nc5cccnc45)n(-c4cccc(F)c4)c(=O)c23)cn1 [Compound I-84] | – | < 100 nM |
| – | 1000 to 10000 nM | 1000 to 10000 nM | C[C@H](Nc1ccnc2ccnn12)c1cc2cccc(Cl)c2c(=O)n1-c1cccc(F)c1 [II-4] | – | < 100 nM |
| – | 1000 to 10000 nM | 1000 to 10000 nM | C[C@H](Nc1ccnc2ccnn12)c1cc2cccc(-c3cnn(C)c3)c2c(=O)n1-c1ccccc1 [II-5, (S)-8-(1-methyl-1H-pyrazol-4-yl)-2-phenyl-3-(1-(pyrazolo[1,5-a]pyrimidin-7-ylamino)ethyl)isoquinolin-1(2H)-one] | – | < 100 nM |
| 1000 to 10000 nM | 1000 to 10000 nM | 1000 to 10000 nM | C[C@H](Nc1ccnc2ccnn12)c1cc2cccc(-c3cnn(C)c3)c2c(=O)n1C1CC1 [II-8] | – | – |
| – | 1000 to 10000 nM | > 10000 nM | C[C@H](Nc1ccnc2ccnn12)c1cc2cccc(-c3cnn(C)c3)c2c(=O)n1-c1cccc(F)c1 [II-9] | – | < 100 nM |
| – | 1000 to 10000 nM | > 10000 nM | C[C@H](Nc1ccnn2ccnc12)c1cc2cccc(-c3cnn(C)c3)c2c(=O)n1-c1cccc(F)c1 [II-17] | – | < 100 nM |
| – | 1000 to 10000 nM | 1000 to 10000 nM | C[C@H](Nc1ccnn2ccnc12)c1cc2cccc(-c3cnn(C)c3)c2c(=O)n1-c1ccccc1 [II-18] | – | < 100 nM |
| – | 1000 to 10000 nM | 1000 to 10000 nM | C[C@H](Nc1ccnn2ccnc12)c1cc2cccc(-c3cnn(C)c3)c2c(=O)n1C1CC1 [II-45] | – | < 100 nM |
| – | 1000 to 10000 nM | 1000 to 10000 nM | C[C@H](Nc1ncnc2cccnc12)c1cc2cccc(C(F)(F)F)c2c(=O)n1-c1cccc(F)c1 [III-12] | – | < 100 nM |
| – | 1000 to 10000 nM | 1000 to 10000 nM | C[C@H](Nc1ccnn2ccnc12)c1cc2cccc(C(F)(F)F)c2c(=O)n1-c1cccc(F)c1 [III-15] | – | < 100 nM |
| 1000 to 10000 nM | – | > 10000 nM | C[C@H](Nc1ncnc(N)n1)c1cc2cccc(Cl)c2c(=O)n1-c1cccc(F)c1 [IV-2] | – | < 100 nM |

The next lines start with the compound.

| SMILES | IC50 (PI3Kγ) | IC50 (PI3Kα) | IC50 (PI3Kβ) | EC50 (Balb/c splenic B cells; 1 μM to 100 nM) | EC50 (Balb/c splenic B cells; 'Less than 100 nM') |
| --- | --- | --- | --- | --- | --- |
| C[C@H](Nc1ncnc2cccnc12)c1cc2cc(F)ccc2c(=O)n1-c1ccccc1 [Compound I-6] | 1000 to 10000 nM | 1000 to 10000 nM | > 10000 nM | 100 to 1000 nM | – |
| C[C@H](Nc1ncnc2cccnc12)c1cc2ccc(F)cc2c(=O)n1-c1ccccc1 [Compound I-18] | – | 1000 to 10000 nM | 1000 to 10000 nM | – | < 100 nM |
| C[C@H](Nc1ncnc2cccnc12)c1cc2cccc(-c3cnn(C)c3)c2c(=O)n1C1CC1 [Compound I-24] | – | 1000 to 10000 nM | 1000 to 10000 nM | – | < 100 nM |
| Cc1nsc2cc(C(C)Nc3ncnc4cccnc34)n(-c3ccccc3)c(=O)c12 (stereo not drawn) [Compound I-27] | 1000 to 10000 nM | – | > 10000 nM | 100 to 1000 nM | – |
| C[C@H](Nc1ncnc2cccnc12)c1cc2cccc(-c3ccc(N)nc3)c2c(=O)n1-c1ccccc1 [Compound I-43] | – | 1000 to 10000 nM | > 10000 nM | – | < 100 nM |
| COc1ccc(-c2cccc3cc([C@H](C)Nc4ncnc5cccnc45)n(-c4ccccc4)c(=O)c23)cn1 [Compound I-48] | – | 1000 to 10000 nM | > 10000 nM | – | < 100 nM |
| C[C@H](Nc1c(C#N)cnc2cccnc12)c1cc2cccc(Cl)c2c(=O)n1-c1ccccc1 [Compound I-53] | 1000 to 10000 nM | – | > 10000 nM | – | – |
| C[C@H](Nc1nc(N)nc2cccnc12)c1cc2cccc(-c3cncnc3)c2c(=O)n1-c1ccccc1 [Compound I-74] | – | 1000 to 10000 nM | 1000 to 10000 nM | – | < 100 nM |
| CNc1nc(N[C@@H](C)c2cc3cccc(Cl)c3c(=O)n2-c2ccccc2)c2ncccc2n1 [Compound I-96] | – | 1000 to 10000 nM | 1000 to 10000 nM | – | < 100 nM |
| C[C@H](Nc1ncnc2ccnn12)c1cc2cccc(Cl)c2c(C(=O)N2CCOCC2)n1 [II-44] | 1000 to 10000 nM | > 10000 nM | 1000 to 10000 nM | – | – |
| C[C@H](Nc1cc(Cl)nn2ccnc12)c1cc2cccc(C(F)(F)F)c2c(=O)n1-c1cccc(F)c1 [III-14] | 1000 to 10000 nM | – | > 10000 nM | – | – |
| Cc1nc2c(N[C@@H](C)c3cc4cccc(C(F)(F)F)c4c(=O)n3-c3ccccc3)ncnc2s1 [III-26] | 1000 to 10000 nM | – | > 10000 nM | – | – |
| Cc1cn2nccc(N[C@@H](C)c3cc4cccc(C(F)(F)F)c4c(=O)n3-c3ccccc3)c2n1 [III-29] | 1000 to 10000 nM | – | > 10000 nM | – | – |
| C[C@H](Nc1c(C#N)cnc2cccnc12)c1cc2cccc(C(F)(F)F)c2c(=O)n1-c1ccccc1 [III-37] | 1000 to 10000 nM | – | > 10000 nM | – | – |
| C[C@H](Nc1ncnc2[nH]cnc12)c1cc2scc(C(F)(F)F)c2c(=O)n1-c1ccccc1 [III-40] | 1000 to 10000 nM | – | – | – | – |
| C[C@H](Nc1ncnc2cccnc12)c1cc2scc(C(F)(F)F)c2c(=O)n1-c1ccccc1 [III-41] | 1000 to 10000 nM | – | > 10000 nM | – | < 100 nM |
| COc1nc(N[C@@H](C)c2cc3cccc(C(F)(F)F)c3c(=O)n2-c2cccc(F)c2)c2ncccc2n1 [III-43] | 1000 to 10000 nM | – | > 10000 nM | – | – |

Reference: patent US8969363B2, “Heterocyclic compounds and uses thereof” (Infinity Pharmaceuticals, Inc., priority 2011, dated 2015)
